Assay results reported in ChEMBL document CHEMBL1201862, “PubChem BioAssay data set” (2004).
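48-hour exposure; five concentrations; linearly interpolated endpoints. At the GI50, growth is halved.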 The source made the active and inactive calls. Rule as the data show it: active = GI50 up to about 1.1 µM and inactive = higher.

What was measured:
Assay in all cases: growth of human tumour cells (NCI), 48 h
DMS-273 = system: DMS-273
M19-MEL = system: M19-MEL
BT-549 = system: BT-549
MDA-MB-435 = system: MDA-MB-435
786-0 = system: 786-0
Hs-578T = system: Hs-578T
MDA-N = system: MDA-N
RXF 631 = system: RXF 631
LXFL 529 = system: LXFL 529

Measured: GI50

Cc1cc(NC(=S)Nc2ccccc2)c(NC(=S)Nc2ccccc2)cc1C
inactive: DMS-273 17 µM | M19-MEL 23.3 µM

CCOc1ncn(-c2ccc(NC(=S)Nc3ncccn3)cc2)n1
inactive: BT-549 20.8 µM | MDA-MB-435 56.1 µM

O=C(CCN1CCOCC1)/C(=C/c1ccccc1)c1ccccc1
inactive: DMS-273 6.28 µM | M19-MEL 3.82 µM

O=C(Nc1ccccc1C(=O)NCCCO)/C(=C/c1ccccc1O)NC(=O)c1ccccc1
inactive: 786-0 34 µM | BT-549 19.8 µM | Hs-578T 26.2 µM | MDA-MB-435 > 50.5 µM | MDA-N > 43.5 µM

CCP(=O)(CC)C(Cl)(Cl)C(O)C(Cl)(Cl)Cl (centres undefined)
inactive: Hs-578T > 100 µM | MDA-N > 100 µM

Cc1c(C)c2ccc(OCC(O)COC(C)C)c(C)c2oc1=O (centres undefined)
inactive: 786-0 > 10 µM | Hs-578T 31.7 µM | MDA-N 17.7 µM

CCOC(=O)Cc1cc(OC)c(OC)cc1/C(Cl)=C(\C=O)c1ccc(OC)c(OC)c1
inactive: DMS-273 19.5 µM | M19-MEL 22.6 µM | RXF 631 20.3 µM

O=C1c2cccc(O)c2C(=O)c2c(O)cc(CO)cc21 [ALOE-EMODIN]
inactive: DMS-273 27.5 µM | LXFL 529 56 µM | RXF 631 67.5 µM

CCOC(=O)NC(Nc1ncccn1)(C(F)(F)F)C(F)(F)F
inactive: BT-549 > 100 µM | Hs-578T > 100 µM | MDA-MB-435 > 100 µM | MDA-N > 100 µM

CC(Sc1ccccc1)C(CO)(CO)[N+](=O)[O-] (centres undefined)
inactive: DMS-273 16.7 µM | LXFL 529 13.7 µM | M19-MEL 16.4 µM

CC1=C2C(O)C(C(C)C(=O)N(C)C)CCC2(C)C=CC1=O (centres undefined)
inactive: DMS-273 > 100 µM | M19-MEL > 100 µM

CC1=Nc2c(N)nc(N)nc2N(C)C1
inactive: BT-549 > 100 µM | Hs-578T > 100 µM | MDA-MB-435 > 100 µM | MDA-N > 100 µM

O=C(N/C(=C\c1ccccc1[N+](=O)[O-])c1nc2ccccc2[nH]1)c1ccccc1
inactive: DMS-273 > 100 µM | LXFL 529 59.4 µM | M19-MEL > 100 µM | RXF 631 > 100 µM

Cc1nc(Cl)c(C)c(Cl)n1
inactive: 786-0 > 100 µM | BT-549 > 100 µM | Hs-578T > 75.2 µM | MDA-MB-435 33.3 µM | MDA-N 18.8 µM

Cc1nc(O)nc(O)c1/C=C/C(=O)O
inactive: DMS-273 > 1000 µM | M19-MEL > 1000 µM

CCC1C(C#N)=C(O)NC(O)=C1C#N
inactive: DMS-273 > 100 µM | LXFL 529 > 100 µM | M19-MEL > 100 µM | RXF 631 > 100 µM

O=C1CCC(=O)C1=NNc1ccccc1
inactive: 786-0 > 100 µM | DMS-273 > 100 µM | M19-MEL > 100 µM | RXF 631 > 100 µM
